Reference: US8097635B2, “Insulin resistance improving agent” (Kyowa Hakko Bio Co., Ltd., priority 2006, dated 2012)

What was measured:
Type in all cases: in vivo
[1] = test system: BKS. Cg-+Lepr^db/+Lepr^db/JcI mice (type II diabetes model mice); test: Test Example 1 overall conclusion (insulin resistance, type II diabetes, body weight); conditions: Test Example 1, oral once a day for about 32 days
From the text: Twenty seven (27) BKS. Cg-+Lepr^db/+Lepr^db/JcI mice (Clea Japan Inc., female, 7 week old), which were type II diabetes model mice expressing the symptoms of hyperinsulinemia due to insulin resistance, were divided into 3 groups each consisting of 9 mice. The groups were designated as group 1, group 2, and group 3. Mice of the groups 1 to 3 were fed with free access to pellets CE-2 (Clea Japan Inc.; hereinafter referred to as “CE-2”) for feeding mice and rats. To the mice of group 1, 0.5 w/v % methyl cellulose (0.5 w/v % methyl cellulose 400 cP solution, sterilized, produced by Wako Pure Chemical Industries, Ltd. for biochemistry; hereinafter referred to as “0.5% MC”) was administered orally once a day (10 mL/kg). […] Nonfasting blood serum glucose levels and nonfasting serum insulin concentrations were separately measured using a glucose C-II Test Wako (produced by Wako Pure Chemical Industries, Ltd.) and a Mouse Insulin ELISA Kit (S-type) (produced by Shibayagi Co., Ltd.), respectively. […] Blood glucose levels were measured using a Medisafe Reader GR-101 (produced by Terumo Corporation). […] Blood serum glucose levels and serum insulin concentrations were separately measured using a glucose C-II Test Wako and a Mouse Insulin ELISA Kit (S-type), respectively. The results were expressed as average levels±standard deviation (n=9). […]

[2] = Body weight of type II diabetes model mice, Test Example 1; conditions: for Body weight: 10 mL/kg orally once a day
From the text: Twenty seven (27) BKS. Cg-+Lepr^db/+Lepr^db/JcI mice (Clea Japan Inc., female, 7 week old), which were type II diabetes model mice expressing the symptoms of hyperinsulinemia due to insulin resistance, were divided into 3 groups each consisting of 9 mice. The groups were designated as group 1, group 2, and group 3.
Mice of the groups 1 to 3 were fed with free access to pellets CE-2 (Clea Japan Inc.; hereinafter referred to as “CE-2”) for feeding mice and rats. To the mice of group 1, 0.5 w/v % methyl cellulose (0.5 w/v % methyl cellulose 400 cP solution, sterilized, produced by Wako Pure Chemical Industries, Ltd. for biochemistry; hereinafter referred to as “0.5% MC”) was administered orally once a day (10 mL/kg). To the mice of group 2, a pyrroloquinoline quinone disodium salt (hereinafter referred to as “PQQ disodium salt,” produced by Mitsubishi Gas Chemical Company, Inc.) suspended in 0.5% MC to a concentration of 0.5 mg/mL was administered orally once a day (10 mL/kg). To the mice of group 3, a PQQ disodium salt suspended in 0.5% MC to a concentration of 2 mg/mL was administered orally once a day (10 mL/kg).

[3] = test system: type II diabetes model KK-AY/Ta JcI mice; test: Glucose tolerance test, Test Example 2; conditions: for Blood glucose level: glucose tolerance test day 15, glucose 1 g/kg orally after 18 h fasting, 10 mL/kg orally once a day; for Blood glucose levels in glucose tolerance test compared with group 1 (0.5% MC): 30, 60 and 120 minutes after glucose
Method: Eighteen type II diabetes model KK-AY/Ta JcI mice (Clea Japan Inc., male, 6 week old) were divided into 3 groups (6 mice in group 1, 7 mice in group 2, and 5 mice in group 3). The groups were designated as group 1, group 2, and group 3, respectively. Mice of the groups 1 to 3 were fed with free access to pellets CE-2 for feeding mice and rats. To the mice of group 1, 0.5% MC was administered orally once a day (10 mL/kg). To the mice of group 2, a PQQ disodium salt suspended in 0.5% MC to a concentration of 0.5 mg/mL was administered orally once a day (10 mL/kg). To the mice of group 3, a PQQ disodium salt suspended in 0.5% MC to a concentration of 2 mg/mL was administered orally once a day (10 mL/kg). After 18 hours of fasting from day 14 to day 15 after the initiation of the test, a 10% (w/v) glucose aqueous solution was administered orally to each mouse at 1 g/kg B.W., so as to load the mice with glucose to test the glucose tolerance. Blood was collected from tail veins at 0 minutes, 30 minutes, 60 minutes, and 120 minutes after administration of the glucose aqueous solution. Blood glucose levels were measured using a Medisafe Reader GR-101 (produced by Terumo Corporation). […] Blood glucose levels were expressed as average levels±standard deviation (n=5-7) and statistical significance levels (p-values) were found by a t-test (group 1 with respect to group 2; and group 1 with respect to group 3).

[4] = test system: BKS. Cg-+Lepr^db/+Lepr^db/JcI mice (type II diabetes model mice); test: Nonfasting serum insulin concentration, Test Example 1; conditions: for Serum insulin concentration: non-fasting, 10 mL/kg orally once a day
From the text: (§1) Twenty seven (27) BKS. Cg-+Lepr^db/+Lepr^db/JcI mice (Clea Japan Inc., female, 7 week old), which were type II diabetes model mice expressing the symptoms of hyperinsulinemia due to insulin resistance, were divided into 3 groups each consisting of 9 mice. The groups were designated as group 1, group 2, and group 3. Mice of the groups 1 to 3 were fed with free access to pellets CE-2 (Clea Japan Inc.; hereinafter referred to as “CE-2”) for feeding mice and rats. To the mice of group 1, 0.5 w/v % methyl cellulose (0.5 w/v % methyl cellulose 400 cP solution, sterilized, produced by Wako Pure Chemical Industries, Ltd. for biochemistry; hereinafter referred to as “0.5% MC”) was administered orally once a day (10 mL/kg). To the mice of group 2, a pyrroloquinoline quinone disodium salt (hereinafter referred to as “PQQ disodium salt,” produced by Mitsubishi Gas Chemical Company, Inc.) suspended in 0.5% MC to a concentration of 0.5 mg/mL was administered orally once a day (10 mL/kg). To the mice of group 3, a PQQ disodium salt suspended in 0.5% MC to a concentration of 2 mg/mL was administered orally once a day (10 mL/kg). Blood was collected from the orbital veins on day 14 and day 28 after the initiation of the test, and thus serum was obtained. Nonfasting blood serum glucose levels and nonfasting serum insulin concentrations were separately measured using a glucose C-II Test Wako (produced by Wako Pure Chemical Industries, Ltd.) and a Mouse Insulin ELISA Kit (S-type) (produced by Shibayagi Co., Ltd.), respectively. After 18 hours of fasting from day 28 to day 29 after the initiation of the test, a 40% (w/v) glucose aqueous solution was administered orally to each mouse at 2 g/kg B.W., so as to load the mice with glucose (to test the glucose tolerance). Blood was collected from tail veins at the time of administration of a glucose aqueous solution (0 minute) and then at a certain time point after administration (120 minutes). Blood glucose levels were measured using a Medisafe Reader GR-101 (produced by Terumo Corporation). […] Blood serum glucose levels and serum insulin concentrations were separately measured using a glucose C-II Test Wako and a Mouse Insulin ELISA Kit (S-type), respectively. The results were expressed as average levels±standard deviation (n=9). Statistical significance levels (p-values) were found by a t-test (group 1 with respect to group 2; and group 1 with respect to group 3).

[5] = test system: BKS. Cg-+Lepr^db/+Lepr^db/JcI mice (type II diabetes model mice); test: Fasting blood serum glucose level on day 32, Test Example 1; conditions: for Blood glucose level: fasting, day 32 after initiation of test, 10 mL/kg orally once a day; for Fasting blood glucose levels compared with group 1 (0.5% MC): day 32
From the text: as §1

[6] = test system: BKS. Cg-+Lepr^db/+Lepr^db/JcI mice (type II diabetes model mice); test: Fasting serum insulin concentration on day 32, Test Example 1; conditions: for Insulin concentration: day 32 after initiation of test, 10 mL/kg orally once a day
From the text: Twenty seven (27) BKS. Cg-+Lepr^db/+Lepr^db/JcI mice (Clea Japan Inc., female, 7 week old), which were type II diabetes model mice expressing the symptoms of hyperinsulinemia due to insulin resistance, were divided into 3 groups each consisting of 9 mice. The groups were designated as group 1, group 2, and group 3. Mice of the groups 1 to 3 were fed with free access to pellets CE-2 (Clea Japan Inc.; hereinafter referred to as “CE-2”) for feeding mice and rats. To the mice of group 1, 0.5 w/v % methyl cellulose (0.5 w/v % methyl cellulose 400 cP solution, sterilized, produced by Wako Pure Chemical Industries, Ltd. for biochemistry; hereinafter referred to as “0.5% MC”) was administered orally once a day (10 mL/kg). To the mice of group 2, a pyrroloquinoline quinone disodium salt (hereinafter referred to as “PQQ disodium salt,” produced by Mitsubishi Gas Chemical Company, Inc.) suspended in 0.5% MC to a concentration of 0.5 mg/mL was administered orally once a day (10 mL/kg). To the mice of group 3, a PQQ disodium salt suspended in 0.5% MC to a concentration of 2 mg/mL was administered orally once a day (10 mL/kg). Blood was collected from the orbital veins on day 14 and day 28 after the initiation of the test, and thus serum was obtained. Nonfasting blood serum glucose levels and nonfasting serum insulin concentrations were separately measured using a glucose C-II Test Wako (produced by Wako Pure Chemical Industries, Ltd.) and a Mouse Insulin ELISA Kit (S-type) (produced by Shibayagi Co., Ltd.), respectively. […] Blood glucose levels were measured using a Medisafe Reader GR-101 (produced by Terumo Corporation). […] Blood serum glucose levels and serum insulin concentrations were separately measured using a glucose C-II Test Wako and a Mouse Insulin ELISA Kit (S-type), respectively. The results were expressed as average levels±standard deviation (n=9). […]

[7] = test system: BKS. Cg-+Lepr^db/+Lepr^db/JcI mice (type II diabetes model mice); test: Glucose tolerance test, Test Example 1; conditions: for Blood glucose level: glucose tolerance test day 29, glucose 2 g/kg orally after 18 h fasting, 10 mL/kg orally once a day
From the text: as §1

[8] = test system: BKS. Cg-+Lepr^db/+Lepr^db/JcI mice (type II diabetes model mice); test: Nonfasting blood serum glucose level, Test Example 1; conditions: for Blood glucose level: non-fasting, 10 mL/kg orally once a day
From the text: as §1

[9] = group 2 (0.5 mg/mL, 10 mL/kg orally once a day)
[10] = group 3 (2 mg/mL, 10 mL/kg orally once a day)
[11] = group 2: 0.5 mg/mL, day 14 after initiation of test
[12] = group 2: 0.5 mg/mL, day 28 after initiation of test
[13] = group 3: 2 mg/mL, day 14 after initiation of test
[14] = group 3: 2 mg/mL, day 28 after initiation of test

For `O=C(O)c1cc(C(=O)O)c2c(n1)C(=O)C(=O)c1cc(C(=O)O)[nH]c1-2.[Na].[Na]` [PQQ disodium salt, pyrroloquinoline quinone disodium salt], the “Overall effect on insulin resistance, type II diabetes and body weight” value [1] was “exerts an effect of improving insulin resistance and a therapeutic effect on type II diabetes without body weight gain”, the Body weight ([2]; group 2: 0.5 mg/mL in 0.5% MC, day 0 (test initiated)) was 29.90 ± 0.37 g and the Body weight ([2]; group 2: 0.5 mg/mL in 0.5% MC, day 31) was 37.18 ± 0.65 g. The Body weight ([2]; group 3: 2 mg/mL in 0.5% MC, day 0 (test initiated)) was 29.93 ± 0.51 g, the Body weight ([2]; group 3: 2 mg/mL in 0.5% MC, day 31) was 39.01 ± 1.07 g and the “Body weights compared with group 1 (0.5% MC)” value ([2]; groups 2 and 3 (0.5 and 2 mg/mL, 10 mL/kg orally once a day), after completion of the test) was “almost the same as those of group 1”. The “Overall effect on type II diabetes” value ([3]; Test Example 2, model mice with a gene mutation differing from test example 1) was “exerts a therapeutic effect on type II diabetes”, the Blood glucose level ([3]; group 2: 0.5 mg/mL, 0 minutes) was 116.7 ± 10.1 mg/dL and the Blood glucose level ([3]; group 2: 0.5 mg/mL, 30 minutes, ***p < 0.001 with respect to group 1) was 274.9 ± 8.4*** mg/dl. For the same compound, the Blood glucose level ([3]; group 2: 0.5 mg/mL, 60 minutes, *p < 0.05 with respect to group 1) was 264.6 ± 7.6* mg/dl, the Blood glucose level ([3]; group 2: 0.5 mg/mL, 120 minutes, **p < 0.01 with respect to group 1) was 184.3 ± 7.8** mg/dl and the Blood glucose level ([3]; group 3: 2 mg/mL, 0 minutes) was 117.0 ± 12.2 mg/dL. It also gave a Blood glucose level ([3]; group 3: 2 mg/mL, 30 minutes) of 300.0 ± 24.1 mg/dL, a Blood glucose level ([3]; group 3: 2 mg/mL, 60 minutes) of 261.6 ± 25.6 mg/dL and a Blood glucose level ([3]; group 3: 2 mg/mL, 120 minutes) of 187.4 ± 20.3 mg/dL. The “Blood glucose levels in glucose tolerance test compared with group 1 (0.5% MC)” value [3, 9] was “significantly lower than those of group 1”, the “Blood glucose levels in glucose tolerance test compared with group 1 (0.5% MC)” value [3, 10] was “lower than those of group 1” and the “Serum insulin concentrations compared with group 1 (0.5% MC)” value ([4]; groups 2 and 3 (0.5 and 2 mg/mL, 10 mL/kg orally once a day), day 14 and 28) was “lower than those of group 1”. For the same compound, the Serum insulin concentration [4, 11] was 4.02 ± 0.75 ng/mL, the Serum insulin concentration [4, 12] was 3.02 ± 0.47 ng/mL and the Serum insulin concentration [4, 13] was 6.23 ± 1.69 ng/mL. The Serum insulin concentration [4, 14] was 4.82 ± 1.81 ng/mL, the Blood glucose level ([5]; group 2: 0.5 mg/mL) was 617.7 ± 39.1 mg/dL and the Blood glucose level ([5]; group 3: 2 mg/mL, *p < 0.05 with respect to group 1) was 575.6 ± 33.3* mg/dl. For the same compound, the “Fasting blood glucose levels compared with group 1 (0.5% MC)” value [5, 9] was “lower than those of group 1”, the “Fasting blood glucose levels compared with group 1 (0.5% MC)” value [5, 10] was “significantly lower than those of group 1” and the Insulin concentration ([6]; group 2: 0.5 mg/mL) was 4.88 ± 0.75 ng/mL. For the same compound, the Insulin concentration ([6]; group 3: 2 mg/mL) was 4.4 ± 0.66 ng/mL, the “Serum insulin concentrations compared with group 1 (0.5% MC)” value ([6]; groups 2 and 3 (0.5 and 2 mg/mL, 10 mL/kg orally once a day), day 32) was “lower than those of group 1” and the Blood glucose level ([7]; group 2: 0.5 mg/mL, 0 minute) was 281.3 ± 16.3 mg/dL. The Blood glucose level ([7]; group 2: 0.5 mg/mL, 120 minutes) was 522.0 ± 22.9 mg/dL, the Blood glucose level ([7]; group 3: 2 mg/mL, 0 minute) was 303.4 ± 25.9 mg/dL and the Blood glucose level ([7]; group 3: 2 mg/mL, 120 minutes) was 489.3 ± 47.5 mg/dL. For the same compound, the “Blood glucose levels in glucose tolerance test compared with group 1 (0.5% MC)” value ([7]; groups 2 and 3 (0.5 and 2 mg/mL, 10 mL/kg orally once a day), 120 minutes after glucose) was “lower than those of group 1”, the “Non-fasting blood glucose levels compared with group 1 (0.5% MC)” value ([8]; groups 2 and 3 (0.5 and 2 mg/mL, 10 mL/kg orally once a day), day 14 and day 28) was “lower than those of group 1” and the Blood glucose level [8, 11] was 427.7 ± 11.4 mg/dL. For the same compound, the Blood glucose level [8, 12] was 531.5 ± 12.3 mg/dL, the Blood glucose level [8, 13] was 405.7 ± 24.1 mg/dL and the Blood glucose level [8, 14] was 546.1 ± 26.0 mg/dL.
